The results in this text go back to patent EP4745135A1 (Gluetacs Therapeutics (Shanghai) Co., Ltd., priority 2023, dated 2025).

In one assay the target is T1, IKZF1 (Homo sapiens, UniProt Q13422+Q96SW2).
T1 construct: effects of the compounds of the present disclosure on the expression of target proteins in cells; endogenous in cells; host or cells: human PBMCs (Milecell Biotechnologies)
In words: Western blot, degradation of substrate protein in hPBMCs. In kind it is cell-based.

The next assay deals with T2, IKZF3 (Homo sapiens, UniProt Q96SW2+Q9UKT9).
T2 construct: effects of the compounds of the present disclosure on the expression of target proteins in cells; endogenous in cells; host or cells: human PBMCs (Milecell Biotechnologies)
Described as above. In kind it is cell-based.

Another assay deals with T3, WEE1 (Homo sapiens, UniProt P30291+Q96SW2).
T3 construct: effects of the compounds of the present disclosure on the expression of target proteins in cells; endogenous in cells; host or cells: human PBMCs (Milecell Biotechnologies)
The description is as above. In kind it is cell-based.

The target in another assay is T4, CK1α (Homo sapiens, UniProt P48729+Q96SW2).
T4 construct: effects of the compounds of the present disclosure on the expression of target proteins in cells; endogenous in cells; host or cells: human PBMCs (Milecell Biotechnologies)
The assay is described as above. Format: cell-based.

In another assay the target is T5, IKZF2 (Homo sapiens, UniProt Q96SW2+Q9UKS7).
T5 construct: effects of the compounds of the present disclosure on the expression of target proteins in cells; endogenous in cells; host or cells: human PBMCs (Milecell Biotechnologies)
The assay is described as above. Format: cell-based.

A further assay has as its system GSPT1. Described as above. Format: cell-based, Human.
For assay [1], the target named is T6, human Cereblon WT GST-tagged protein (Homo sapiens, UniProt Q96SW2).
T6 construct: purchased CISBIO 64BDCRBNPEH
As to the kind of experiment: CRBN-binding affinity, HTRF (CEREBLON BINDING kit). The note with it: for inhibition at 0.5 µM: read-out: Inhibition Rate at 0.5 µM (%); for inhibition at 2 µM: read-out: Inhibition Rate at 2 µM (%).

Where [2] appears, read: Western blot, 24 hours of compound treatment, compounds tested at 50 nM and 500 nM (concentration for the table not stated).
The mark [3] stands for this setting: 24 hours treatment, compounds at 50 nM and 500 nM (concentration behind the class not stated).

T2 sequence (Q9UKT9 whole entry): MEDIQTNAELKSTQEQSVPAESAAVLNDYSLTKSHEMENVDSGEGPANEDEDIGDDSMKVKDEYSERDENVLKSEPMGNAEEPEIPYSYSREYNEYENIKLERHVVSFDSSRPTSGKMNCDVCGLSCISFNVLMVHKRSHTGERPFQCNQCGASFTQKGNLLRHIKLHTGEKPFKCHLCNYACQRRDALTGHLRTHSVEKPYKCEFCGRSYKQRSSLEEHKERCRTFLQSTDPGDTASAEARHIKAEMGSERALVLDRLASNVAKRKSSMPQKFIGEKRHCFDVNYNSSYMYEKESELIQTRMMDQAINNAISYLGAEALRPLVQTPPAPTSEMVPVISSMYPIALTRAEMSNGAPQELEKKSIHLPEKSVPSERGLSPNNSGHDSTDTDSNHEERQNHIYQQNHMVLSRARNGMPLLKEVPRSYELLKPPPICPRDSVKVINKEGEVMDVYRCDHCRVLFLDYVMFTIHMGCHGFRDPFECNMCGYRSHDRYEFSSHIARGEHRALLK
T2 sequence (Q96SW2 whole entry): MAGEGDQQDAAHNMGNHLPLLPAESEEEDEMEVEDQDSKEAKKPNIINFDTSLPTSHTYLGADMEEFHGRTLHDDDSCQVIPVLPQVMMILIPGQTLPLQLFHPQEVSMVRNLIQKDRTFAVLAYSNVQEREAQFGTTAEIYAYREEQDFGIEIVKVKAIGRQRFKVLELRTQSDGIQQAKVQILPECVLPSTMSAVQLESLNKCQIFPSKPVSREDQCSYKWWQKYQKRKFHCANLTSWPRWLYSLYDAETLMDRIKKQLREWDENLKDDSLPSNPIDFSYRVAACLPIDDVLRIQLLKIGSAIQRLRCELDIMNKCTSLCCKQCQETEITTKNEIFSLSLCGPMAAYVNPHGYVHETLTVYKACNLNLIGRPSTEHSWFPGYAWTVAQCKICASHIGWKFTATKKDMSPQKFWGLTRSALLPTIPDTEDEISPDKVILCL
T2 sequence (Q16531 whole entry partner): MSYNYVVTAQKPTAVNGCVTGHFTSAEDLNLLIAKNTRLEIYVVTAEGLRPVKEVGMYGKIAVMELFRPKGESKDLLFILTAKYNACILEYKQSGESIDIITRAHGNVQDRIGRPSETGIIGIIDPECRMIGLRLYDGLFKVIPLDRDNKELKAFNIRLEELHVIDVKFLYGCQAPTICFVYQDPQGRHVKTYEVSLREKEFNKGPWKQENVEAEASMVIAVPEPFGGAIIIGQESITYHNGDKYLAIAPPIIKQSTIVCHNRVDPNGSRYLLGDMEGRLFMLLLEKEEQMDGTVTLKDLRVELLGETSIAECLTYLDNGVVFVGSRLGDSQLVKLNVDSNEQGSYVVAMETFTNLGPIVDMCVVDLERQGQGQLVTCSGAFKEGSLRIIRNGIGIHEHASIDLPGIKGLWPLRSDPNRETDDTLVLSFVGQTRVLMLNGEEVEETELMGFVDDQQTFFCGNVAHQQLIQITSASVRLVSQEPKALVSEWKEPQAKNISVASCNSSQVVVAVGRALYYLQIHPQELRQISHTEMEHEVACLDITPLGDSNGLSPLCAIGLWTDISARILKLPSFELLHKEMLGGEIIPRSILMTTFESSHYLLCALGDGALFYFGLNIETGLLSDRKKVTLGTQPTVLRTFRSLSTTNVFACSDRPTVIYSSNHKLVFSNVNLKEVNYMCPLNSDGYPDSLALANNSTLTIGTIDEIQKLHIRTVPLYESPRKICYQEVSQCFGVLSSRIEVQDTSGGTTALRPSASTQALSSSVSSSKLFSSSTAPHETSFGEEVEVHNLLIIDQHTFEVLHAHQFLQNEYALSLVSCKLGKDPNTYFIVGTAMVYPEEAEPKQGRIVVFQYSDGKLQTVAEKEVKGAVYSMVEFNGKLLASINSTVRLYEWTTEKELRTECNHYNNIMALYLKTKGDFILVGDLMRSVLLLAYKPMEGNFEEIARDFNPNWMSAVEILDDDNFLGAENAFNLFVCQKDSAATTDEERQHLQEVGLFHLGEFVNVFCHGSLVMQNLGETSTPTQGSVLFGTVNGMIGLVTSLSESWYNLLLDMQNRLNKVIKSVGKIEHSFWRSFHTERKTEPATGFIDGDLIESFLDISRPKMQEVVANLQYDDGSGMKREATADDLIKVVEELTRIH
T1 sequence (Q13422 whole entry): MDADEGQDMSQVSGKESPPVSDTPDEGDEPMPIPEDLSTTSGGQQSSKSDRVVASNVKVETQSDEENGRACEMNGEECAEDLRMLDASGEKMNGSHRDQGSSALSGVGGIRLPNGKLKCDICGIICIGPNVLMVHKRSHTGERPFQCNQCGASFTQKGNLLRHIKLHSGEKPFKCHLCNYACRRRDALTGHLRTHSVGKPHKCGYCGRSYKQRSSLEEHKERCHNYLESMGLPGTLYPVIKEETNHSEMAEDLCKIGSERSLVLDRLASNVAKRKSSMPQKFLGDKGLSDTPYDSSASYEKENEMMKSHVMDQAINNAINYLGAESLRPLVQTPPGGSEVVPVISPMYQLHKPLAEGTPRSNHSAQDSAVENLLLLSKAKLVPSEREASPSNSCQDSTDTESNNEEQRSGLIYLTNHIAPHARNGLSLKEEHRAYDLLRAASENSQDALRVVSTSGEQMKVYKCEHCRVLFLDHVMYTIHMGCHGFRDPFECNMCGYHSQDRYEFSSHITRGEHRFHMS
T1 sequence (Q96SW2 whole entry): as the sequence (Q96SW2 whole entry) above
T1 sequence (Q16531 whole entry partner): as the sequence (Q16531 whole entry partner) above
T5 sequence (Q9UKS7 whole entry): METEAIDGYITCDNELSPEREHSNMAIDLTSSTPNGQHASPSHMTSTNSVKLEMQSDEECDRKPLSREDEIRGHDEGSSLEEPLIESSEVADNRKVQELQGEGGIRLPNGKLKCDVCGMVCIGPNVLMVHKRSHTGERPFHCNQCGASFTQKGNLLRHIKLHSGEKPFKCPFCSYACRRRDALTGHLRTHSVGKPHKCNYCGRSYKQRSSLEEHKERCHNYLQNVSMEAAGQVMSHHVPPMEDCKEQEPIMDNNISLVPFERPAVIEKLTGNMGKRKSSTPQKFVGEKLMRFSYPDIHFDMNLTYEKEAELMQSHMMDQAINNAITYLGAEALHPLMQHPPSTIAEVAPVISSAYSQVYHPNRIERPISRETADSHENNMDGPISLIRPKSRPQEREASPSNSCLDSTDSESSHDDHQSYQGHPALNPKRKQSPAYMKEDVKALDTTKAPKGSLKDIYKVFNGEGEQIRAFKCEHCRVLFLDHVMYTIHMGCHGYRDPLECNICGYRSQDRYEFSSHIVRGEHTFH
T5 sequence (Q96SW2 whole entry): as the sequence (Q96SW2 whole entry) above
T5 sequence (Q16531 whole entry partner): as the sequence (Q16531 whole entry partner) above
T4 sequence (P48729 whole entry): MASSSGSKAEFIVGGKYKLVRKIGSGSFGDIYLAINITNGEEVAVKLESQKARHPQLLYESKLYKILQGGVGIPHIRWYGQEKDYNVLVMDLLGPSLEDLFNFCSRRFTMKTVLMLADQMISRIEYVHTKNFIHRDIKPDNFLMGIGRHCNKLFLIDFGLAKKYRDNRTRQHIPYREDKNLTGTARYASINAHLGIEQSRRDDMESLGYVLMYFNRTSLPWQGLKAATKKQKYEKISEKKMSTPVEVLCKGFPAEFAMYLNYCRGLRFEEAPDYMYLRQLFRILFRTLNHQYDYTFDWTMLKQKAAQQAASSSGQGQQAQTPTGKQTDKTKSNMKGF
T4 sequence (Q96SW2 whole entry): as the sequence (Q96SW2 whole entry) above
T4 sequence (Q16531 whole entry partner): as the sequence (Q16531 whole entry partner) above
T6 sequence (Q96SW2 whole entry): as the sequence (Q96SW2 whole entry) above
T3 sequence (P30291 whole entry): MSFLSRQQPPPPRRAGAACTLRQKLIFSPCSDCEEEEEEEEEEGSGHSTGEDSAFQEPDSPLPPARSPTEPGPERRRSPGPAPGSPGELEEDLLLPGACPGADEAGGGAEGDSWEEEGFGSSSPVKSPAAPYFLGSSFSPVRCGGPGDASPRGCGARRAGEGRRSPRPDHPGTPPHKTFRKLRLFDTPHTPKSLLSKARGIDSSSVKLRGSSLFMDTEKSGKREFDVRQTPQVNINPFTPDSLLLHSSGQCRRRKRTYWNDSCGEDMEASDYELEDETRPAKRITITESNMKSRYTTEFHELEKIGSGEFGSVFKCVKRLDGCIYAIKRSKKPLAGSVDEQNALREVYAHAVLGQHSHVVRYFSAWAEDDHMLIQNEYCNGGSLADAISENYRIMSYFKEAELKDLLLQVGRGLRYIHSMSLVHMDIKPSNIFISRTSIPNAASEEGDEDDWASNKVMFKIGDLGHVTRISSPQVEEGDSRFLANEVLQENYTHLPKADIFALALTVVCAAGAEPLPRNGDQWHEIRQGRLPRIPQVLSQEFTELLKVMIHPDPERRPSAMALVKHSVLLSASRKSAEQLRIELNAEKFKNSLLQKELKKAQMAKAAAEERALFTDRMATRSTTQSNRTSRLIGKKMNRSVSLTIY
T3 sequence (Q96SW2 whole entry): as the sequence (Q96SW2 whole entry) above
T3 sequence (Q16531 whole entry partner): as the sequence (Q16531 whole entry partner) above

Consider `O=C1CCC(N2Cc3c(CN4CCN(c5ccnc(Cl)c5Br)CC4)cccc3C2=S)C(=O)N1` (stereo not shown) [GT-08734, 3-(4-((4-(3-bromo-2-chloropyridin-4-yl)piperazin-1-yl)methyl)-1-thioxoisoindolin-2-yl)piperidine-2,6-dione], for which the “IKZF 1 substrate protein remaining %” value at IKZF1 (setting [2]) is “B (80%< substrate protein remaining %≤ 100%)”. Further, the “IKZF3 substrate protein remaining %” value on IKZF3 (setting [2]) was “B (80%< substrate protein remaining %≤ 100%)”. The “Wee1 substrate protein remaining %” value on WEE1 (setting [2]) is “A (0% ≤ substrate protein remaining % ≤ 80%)”. In addition, the “CK1α substrate protein remaining %” value on CK1α (setting [2]) is given as “B (80%< substrate protein remaining %≤ 100%)”. Moreover, on IKZF2 (setting [2]), the “IKZF2 substrate protein remaining %” value was “B (80%< substrate protein remaining %≤ 100%)”. Moreover, the “GSPT1 substrate protein remaining %” value in the assay on GSPT1 (setting [2]) is recorded as “A (0% ≤ substrate protein remaining % ≤ 80%)”. Moreover, in assay [1], the inhibition at 0.5 µM fell in the range of 60 to 80% and the inhibition at 2 µM was 80 to 100%.
Take `Cc1cccc(N2CCN(Cc3cccc4c3CN(C3CCC(=O)NC3=O)C4=S)CC2)n1` (stereo not shown) [GT-08692, 3-(4-((4-(6-methylpyridin-2-yl)piperazin-1-yl)methyl)-1-thioxoisoindolin-2-yl)piperidine-2,6-dione]: the “IKZF 1 substrate protein remaining %” value at IKZF1 (setting [2]) is on record as “B (80%< substrate protein remaining %≤ 100%)”. Besides, on IKZF3 (setting [2]), the “IKZF3 substrate protein remaining %” value is recorded as “B (80%< substrate protein remaining %≤ 100%)”. On WEE1 (setting [2]), the “Wee1 substrate protein remaining %” value was “A (0% ≤ substrate protein remaining % ≤ 80%)”. For the same compound, the “CK1α substrate protein remaining %” value on CK1α (setting [2]) is on record as “B (80%< substrate protein remaining %≤ 100%)”. Also, the “IKZF2 substrate protein remaining %” value on IKZF2 (setting [2]) is “B (80%< substrate protein remaining %≤ 100%)”. Also, the “GSPT1 substrate protein remaining %” value in the assay on GSPT1 (setting [2]) is “B (80%< substrate protein remaining %≤ 100%)”. Besides, in assay [1], the inhibition at 0.5 µM is 53 to 60% and the inhibition at 2 µM was 80 to 100%.
With `O=C1CCC(N2Cc3c(CN4CCC(N5CCOc6cc(F)ccc65)CC4)cccc3C2=S)C(=O)N1` (stereo not shown) [GT-08852, 3-(4-((4-(7-fluoro-2,3-dihydro-4H-benzo[b][1,4]oxazin-4-yl)piperidin-1-yl)methyl)-1-thioxoisoindolin-2-yl)piperidine-2,6-dione], at IKZF1 (setting [3]), the “IKZF 1 substrate protein remaining %” value is “B (80%< substrate protein remaining %≤ 100%)”. Besides, the “IKZF3 substrate protein remaining %” value at IKZF3 (setting [3]) is listed as “B (80%< substrate protein remaining %≤ 100%)”. The “Wee1 substrate protein remaining %” value on WEE1 (setting [3]) is reported as “A (0% ≤ substrate protein remaining % ≤ 80%)”. At CK1α (setting [3]), the “CK1α substrate protein remaining %” value is reported as “B (80%< substrate protein remaining %≤ 100%)”. Besides, the “IKZF2 substrate protein remaining %” value at IKZF2 (setting [3]) is recorded as “B (80%< substrate protein remaining %≤ 100%)”. Further, the “GSPT1 substrate protein remaining %” value in the assay on GSPT1 (setting [3]) is reported as “B (80%< substrate protein remaining %≤ 100%)”. In addition, in assay [1], the inhibition at 0.5 µM is 40 to 53% and the inhibition at 2 µM fell in the range of 80 to 100%.
Consider `Cc1sc2ncnc(N3CCN(Cc4cccc5c4CN(C4CCC(=O)NC4=O)C5=S)CC3)c2c1C` (stereo not shown) [GT-08916, 3-(4-((4-(5,6-dimethylthieno[2,3-d]pyrimidin-4-yl)piperazin-1-yl)methyl)-1-thioxoisoindolin-2-yl)piperidine-2,6-dione], for which the “IKZF 1 substrate protein remaining %” value on IKZF1 (setting [3]) is listed as “B (80%< substrate protein remaining %≤ 100%)”. Besides, the “IKZF3 substrate protein remaining %” value at IKZF3 (setting [3]) was “B (80%< substrate protein remaining %≤ 100%)”. At WEE1 (setting [3]), the “Wee1 substrate protein remaining %” value is recorded as “A (0% ≤ substrate protein remaining % ≤ 80%)”. Also, the “CK1α substrate protein remaining %” value at CK1α (setting [3]) is listed as “B (80%< substrate protein remaining %≤ 100%)”. Further, at IKZF2 (setting [3]), the “IKZF2 substrate protein remaining %” value is listed as “B (80%< substrate protein remaining %≤ 100%)”. Moreover, the “GSPT1 substrate protein remaining %” value in the assay on GSPT1 (setting [3]) is listed as “A (0% ≤ substrate protein remaining % ≤ 80%)”. In assay [1], the inhibition at 0.5 µM fell in the range of 40 to 53% and the inhibition at 2 µM lay within 80 to 100%.
Regarding `O=C1CCC(N2Cc3c(CN4CCCN(c5cccc(Cl)c5Cl)CC4)cccc3C2=S)C(=O)N1` (stereo not shown) [GT-08472, 3-(4-((4-(2,3-dichlorophenyl)-1,4-diazepan-1-yl)methyl)-1-thioxoisoindolin-2-yl)piperidine-2,6-dione], the “IKZF 1 substrate protein remaining %” value at IKZF1 (setting [2]) is on record as “B (80%< substrate protein remaining %≤ 100%)”. In addition, the “IKZF3 substrate protein remaining %” value on IKZF3 (setting [2]) was “B (80%< substrate protein remaining %≤ 100%)”. Moreover, the “Wee1 substrate protein remaining %” value at WEE1 (setting [2]) is “B (80%< substrate protein remaining %≤ 100%)”. Besides, on CK1α (setting [2]), the “CK1α substrate protein remaining %” value was “B (80%< substrate protein remaining %≤ 100%)”. Besides, the “IKZF2 substrate protein remaining %” value on IKZF2 (setting [2]) is “B (80%< substrate protein remaining %≤ 100%)”. Moreover, in the assay on GSPT1 (setting [2]), the “GSPT1 substrate protein remaining %” value is “A (0% ≤ substrate protein remaining % ≤ 80%)”. In addition, in assay [1], the inhibition at 0.5 µM lay in the range of 40 to 53% and the inhibition at 2 µM lay within 80 to 100%.
In the case of `O=C1CCC(N2Cc3c(CN4CCC(N(c5ccccc5)c5ccccc5)CC4)cccc3C2=S)C(=O)N1` (stereo not shown) [GT-08209, 3-(4-((4-(diphenylamino)piperidin-1-yl)methyl)-1-thioxoisoindolin-2-yl)piperidine-2,6-dione], the “IKZF 1 substrate protein remaining %” value at IKZF1 (setting [2]) is on record as “B (80%< substrate protein remaining %≤ 100%)”. Besides, the “IKZF3 substrate protein remaining %” value on IKZF3 (setting [2]) was “B (80%< substrate protein remaining %≤ 100%)”. The “Wee1 substrate protein remaining %” value on WEE1 (setting [2]) was “A (0% ≤ substrate protein remaining % ≤ 80%)”. Also, the “CK1α substrate protein remaining %” value on CK1α (setting [2]) was “B (80%< substrate protein remaining %≤ 100%)”. Also, the “IKZF2 substrate protein remaining %” value at IKZF2 (setting [2]) is reported as “B (80%< substrate protein remaining %≤ 100%)”. Further, in the assay with GSPT1 (setting [2]), the “GSPT1 substrate protein remaining %” value is listed as “A (0% ≤ substrate protein remaining % ≤ 80%)”. In assay [1], the inhibition at 0.5 µM fell in the range of 60 to 80% and the inhibition at 2 µM was in the range of 80 to 100%.
Regarding `O=C1CCC(N2Cc3cc(CN4CCN(c5c(F)cccc5F)CC4)ccc3C2=S)C(=O)N1` (stereo not shown) [GT-08626, 3-(5-((4-(2,6-difluorophenyl)piperazin-1-yl)methyl)-1-thioxoisoindolin-2-yl)piperidine-2,6-dione], at IKZF1 (setting [2]), the “IKZF 1 substrate protein remaining %” value is “B (80%< substrate protein remaining %≤ 100%)”. Also, the “IKZF3 substrate protein remaining %” value on IKZF3 (setting [2]) was “B (80%< substrate protein remaining %≤ 100%)”. Further, at WEE1 (setting [2]), the “Wee1 substrate protein remaining %” value is recorded as “B (80%< substrate protein remaining %≤ 100%)”. Besides, the “CK1α substrate protein remaining %” value on CK1α (setting [2]) is “B (80%< substrate protein remaining %≤ 100%)”. At IKZF2 (setting [2]), the “IKZF2 substrate protein remaining %” value is “B (80%< substrate protein remaining %≤ 100%)”. In addition, the “GSPT1 substrate protein remaining %” value in the assay with GSPT1 (setting [2]) is reported as “A (0% ≤ substrate protein remaining % ≤ 80%)”. In assay [1], the inhibition at 0.5 µM was 60 to 80% and the inhibition at 2 µM was in the range of 80 to 100%.
Take `COc1ccc(N2CCN(Cc3cccc4c3CN(C3CCC(=O)NC3=O)C4=S)CC2)cc1` (stereo not shown) [GT-08495, 3-(4-((4-(4-methoxyphenyl)piperazin-1-yl)methyl)-1-thioxoisoindolin-2-yl)piperidine-2,6-dione]: the “IKZF 1 substrate protein remaining %” value on IKZF1 (setting [2]) was “A (0% ≤ substrate protein remaining % ≤ 80%)”. The “IKZF3 substrate protein remaining %” value on IKZF3 (setting [2]) is “B (80%< substrate protein remaining %≤ 100%)”. Also, on WEE1 (setting [2]), the “Wee1 substrate protein remaining %” value is “A (0% ≤ substrate protein remaining % ≤ 80%)”. The “CK1α substrate protein remaining %” value on CK1α (setting [2]) is “B (80%< substrate protein remaining %≤ 100%)”. Moreover, the “IKZF2 substrate protein remaining %” value on IKZF2 (setting [2]) is “A (0% ≤ substrate protein remaining % ≤ 80%)”. Moreover, in the assay with GSPT1 (setting [2]), the “GSPT1 substrate protein remaining %” value was “A (0% ≤ substrate protein remaining % ≤ 80%)”. Besides, in assay [1], the inhibition at 0.5 µM was in the range of 53 to 60% and the inhibition at 2 µM is 60 to 80%.

By inhibition is commonly meant the change of the read-out against control, counted positive when it falls.
